From US7638537B2, “Pyrazole compounds as transforming growth factor (TGF) inhibitors” (Pfizer Inc., priority 2002, dated 2009) come the findings set out here.

SMILES strings stand for the structures.

For this assay, the target named is T1, ALK-5 (TβRI) (Homo sapiens, UniProt P36897).
T1 construct: using either the kinase domain of ALK5 with Smad3 as substrate; GST
T1 sequence (P36897 205-495 limits assumed): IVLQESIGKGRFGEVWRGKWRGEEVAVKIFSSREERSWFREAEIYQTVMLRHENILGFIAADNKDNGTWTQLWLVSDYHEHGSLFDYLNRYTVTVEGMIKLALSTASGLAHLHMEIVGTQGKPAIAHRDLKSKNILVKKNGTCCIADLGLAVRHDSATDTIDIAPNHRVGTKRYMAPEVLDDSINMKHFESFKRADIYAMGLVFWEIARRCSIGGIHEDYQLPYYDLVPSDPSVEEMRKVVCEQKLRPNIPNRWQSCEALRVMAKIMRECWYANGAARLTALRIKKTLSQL
Nature of the assay: ALK-5 (TβRI) Kinase Assay. The assay is classed as biochemical. As to the method:
The kinase assays were performed with 65 nM GST-ALK5 and 84 nM GST-Smad3 in 50 mM HEPES, 5 mM MgCl2, 1 mM CaCl2, 1 mM dithiothreitol, and 3_M ATP. Reactions were incubated with 0.5_Ci of [33 P]_ATP for 3 h at 30° C. Phosphorylated protein was captured on P-81 paper (Whatman, Maidstone, England), washed with 0.5% phosphoric acid, and counted by liquid scintillation. Alternatively, Smad3 or Smad1 protein was also coated onto FlashPlate Sterile Basic Microplates (PerkinElmer Life Sciences, Boston, Mass.). Kinase assays were then performed in Flash-Plates with same assay conditions using either the kinase domain of ALK5 with Smad3 as substrate or the kinase domain of ALK6 (BMP receptor) with Smad1 as substrate. Plates were washed three times with phosphate buffer and counted by TopCount (Packard Bio-science, Meriden, Conn.). (Laping, N. J. et al. Molecular Pharmacology 62:58-64 (2002)).

The compound `c1ccc(-c2n[nH]cc2-c2ccc3c(c2)OCO3)nc1` [Example 7, 2-(4-Benzo[1,3]dioxol-5-yl-1H-pyrazol-3-yl)-pyridine] had an IC50 of around 51 nM.

What is called IC50 is the concentration needed to halve the response being measured.
